Measured values reported in the supplement of paper PMC10307832.

Legend:
Assay in all cases: relative viability (nuclei count vs DMSO), 5 days (fraction); higher = more cells survive
Everolimus + Luminespib = compound: CO[C@H]1C[C@@H]2CC[C@@H](C)[C@@](O)(O2)C(=O)C(=O)N2CCCC[C@H]2C(=O)O[C@H]([C@H](C)C[C@@H]2CC[C@@H](OCCO)[C@H](OC)C2)CC(=O)[C@H](C)/C=C(\C)[C@@H](O)[C@@H](OC)C(=O)[C@H](C)C[C@H](C)/C=C/C=C/C=C/1C [Everolimus] + CCNC(=O)c1noc(-c2cc(C(C)C)c(O)cc2O)c1-c1ccc(CN2CCOCC2)cc1 [Luminespib] (partner 0.01 µM)
Method in brief: (§1)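 Relative viability was taken as the ratio of nuclei in treated wells to nuclei in vehicle wells. Lung cancer cell lines in 1536-well plates received compounds by pin tool one day after seeding, either one drug alone or a fixed anchor-drug dose plus five library-drug doses (not always all listed) in √10 steps. Nuclei were counted on 4× images after 5 days of treatment, and values are medians of duplicate plates.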

Everolimus + Alpelisib = compound: CO[C@H]1C[C@@H]2CC[C@@H](C)[C@@](O)(O2)C(=O)C(=O)N2CCCC[C@H]2C(=O)O[C@H]([C@H](C)C[C@@H]2CC[C@@H](OCCO)[C@H](OC)C2)CC(=O)[C@H](C)/C=C(\C)[C@@H](O)[C@@H](OC)C(=O)[C@H](C)C[C@H](C)/C=C/C=C/C=C/1C [Everolimus] + Cc1nc(NC(=O)N2CCC[C@H]2C(N)=O)sc1-c1ccnc(C(C)(C)C(F)(F)F)c1 [Alpelisib] (partner 2 µM)
Method in brief: as §1

Everolimus + Dasatinib = compound: CO[C@H]1C[C@@H]2CC[C@@H](C)[C@@](O)(O2)C(=O)C(=O)N2CCCC[C@H]2C(=O)O[C@H]([C@H](C)C[C@@H]2CC[C@@H](OCCO)[C@H](OC)C2)CC(=O)[C@H](C)/C=C(\C)[C@@H](O)[C@@H](OC)C(=O)[C@H](C)C[C@H](C)/C=C/C=C/C=C/1C [Everolimus] + Cc1nc(Nc2ncc(C(=O)Nc3c(C)cccc3Cl)s2)cc(N2CCN(CCO)CC2)n1 [Dasatinib] (partner 0.075 µM)
Method in brief: as §1

Everolimus + Tozasertib = compound: CO[C@H]1C[C@@H]2CC[C@@H](C)[C@@](O)(O2)C(=O)C(=O)N2CCCC[C@H]2C(=O)O[C@H]([C@H](C)C[C@@H]2CC[C@@H](OCCO)[C@H](OC)C2)CC(=O)[C@H](C)/C=C(\C)[C@@H](O)[C@@H](OC)C(=O)[C@H](C)C[C@H](C)/C=C/C=C/C=C/1C [Everolimus] + Cc1cc(Nc2cc(N3CCN(C)CC3)nc(Sc3ccc(NC(=O)C4CC4)cc3)n2)n[nH]1 [Tozasertib] (partner 0.1 µM)
Method in brief: as §1

Row | Cell Line | relative viability (Everolimus + Luminespib; first compound 0.01 µM) | relative viability (Everolimus + Luminespib; first compound 0.03162 µM) | relative viability (Everolimus + Luminespib; first compound 0.3162 µM) | relative viability (Everolimus + Luminespib; first compound 1 µM) | relative viability (Everolimus + Alpelisib; first compound 0.01 µM) | relative viability (Everolimus + Alpelisib; first compound 0.03162 µM) | relative viability (Everolimus + Alpelisib; first compound 0.1 µM) | relative viability (Everolimus + Alpelisib; first compound 0.3162 µM) | relative viability (Everolimus + Alpelisib; first compound 1 µM) | relative viability (Everolimus + Dasatinib; first compound 0.01 µM) | relative viability (Everolimus + Dasatinib; first compound 0.03162 µM) | relative viability (Everolimus + Dasatinib; first compound 0.3162 µM) | relative viability (Everolimus + Dasatinib; first compound 1 µM) | relative viability (Everolimus + Tozasertib; first compound 0.01 µM) | relative viability (Everolimus + Tozasertib; first compound 0.03162 µM) | relative viability (Everolimus + Tozasertib; first compound 0.1 µM) | relative viability (Everolimus + Tozasertib; first compound 0.3162 µM) | relative viability (Everolimus + Tozasertib; first compound 1 µM) | relative viability (Everolimus + Luminespib; first compound 0.1 µM) | relative viability (Everolimus + Dasatinib; first compound 0.1 µM)
1 | NCI-H727 | 0.47 | 0.372 | 0.345 | 0.365 | 0.399 | 0.328 | 0.266 | 0.308 | 0.364 | 0.242 | 0.317 | 0.445 | 0.276 | 0.525 | 0.562 | 0.505 | 0.713 | 0.53 |  | 
2 | NCI-H838 | 0.206 | 0.153 | 0.172 | 0.266 | 0.392 | 0.385 | 0.382 | 0.343 | 0.347 | 0.262 | 0.243 | 0.274 | 0.333 | 0.266 | 0.258 | 0.27 | 0.237 | 0.245 | 0.198 | 0.265
3 | NCI-H1355 | 0.302 | 0.33 | 0.258 | 0.265 | 0.415 | 0.277 | 0.309 | 0.327 | 0.321 | 0.436 | 0.402 | 0.334 | 0.316 | 0.497 | 0.398 | 0.355 | 0.413 | 0.32 | 0.268 | 0.315
4 | NCI-H1395 | 0.581 | 0.522 | 0.449 | 0.537 | 0.787 | 0.813 | 0.722 | 0.759 | 1.08 | 0.345 | 0.396 | 0.358 | 0.336 | 0.56 | 0.56 | 0.493 | 0.523 | 0.507 | 0.532 | 0.395
5 | NCI-H1437 | 1.12 | 1.11 | 1.06 | 0.948 | 0.566 | 0.438 | 0.549 | 0.507 | 0.294 | 0.243 | 0.267 | 0.209 | 0.317 | 0.421 | 0.51 | 0.411 | 0.403 | 0.361 | 1.08 | 0.21
6 | NCI-H1651 | 0.589 | 0.531 | 0.575 | 0.567 | 0.639 | 0.454 | 0.611 | 0.537 | 0.451 | 0.297 | 0.335 | 0.24 | 0.405 | 0.616 | 0.542 | 0.383 | 0.485 | 0.366 | 0.612 | 0.259
7 | NCI-H1666 | 0.898 | 0.964 | 0.98 | 0.929 | 0.776 | 0.509 | 0.584 | 0.496 | 0.511 | 0.826 | 0.722 | 0.78 | 0.813 | 0.571 | 0.625 | 0.559 | 0.668 | 0.527 | 0.909 | 0.795
8 | NCI-H1734 | 0.176 | 0.211 | 0.184 | 0.208 | 0.449 | 0.398 | 0.466 | 0.399 | 0.463 | 0.276 | 0.301 | 0.266 | 0.316 | 0.263 | 0.234 | 0.223 | 0.235 | 0.248 | 0.185 | 0.265
9 | NCI-H1755 | 0.372 | 0.312 | 0.347 | 0.244 | 0.646 | 0.659 | 0.653 | 0.643 | 0.611 | 0.421 | 0.232 | 0.419 | 0.318 | 0.594 | 0.488 | 0.538 | 0.525 | 0.425 | 0.347 | 0.37
10 | NCI-H1793 | 0.151 | 0.149 | 0.152 | 0.113 | 0.314 | 0.225 | 0.298 | 0.23 | 0.267 | 0.23 | 0.256 | 0.214 | 0.162 | 0.253 | 0.197 | 0.234 | 0.203 | 0.188 | 0.139 | 0.209
11 | NCI-H1915 | 0.722 | 0.714 | 0.532 | 0.579 | 0.806 | 0.833 | 0.784 | 0.732 | 0.723 | 0.285 | 0.231 | 0.247 | 0.206 | 0.514 | 0.46 | 0.42 | 0.432 | 0.418 | 0.478 | 0.208
12 | NCI-H1944 | 0.436 | 0.447 | 0.429 | 0.345 | 0.592 | 0.565 | 0.593 | 0.564 | 0.562 | 0.179 | 0.193 | 0.184 | 0.157 | 0.215 | 0.236 | 0.205 | 0.224 | 0.185 | 0.374 | 0.157
13 | NCI-H1975 | 0.158 | 0.169 | 0.191 | 0.287 | 0.494 | 0.454 | 0.456 | 0.376 | 0.339 | 0.305 | 0.264 | 0.298 | 0.183 | 0.658 | 0.62 | 0.528 | 0.64 | 0.466 | 0.194 | 0.222
14 | NCI-H1993 | 0.528 | 0.459 | 0.456 | 0.58 | 0.674 | 0.654 | 0.602 | 0.627 | 0.672 | 0.434 | 0.449 | 0.409 | 0.452 | 0.482 | 0.508 | 0.573 | 0.521 | 0.485 | 0.366 | 0.341
